According to patent US7588899B2, “Fluorescent probes for use in protein kinase inhibitor binding assay” (Boehringer Ingelheim Pharmaceuticals, Inc., priority 2003, dated 2009):

Molecular target: STK12 kinase domain (Homo sapiens, UniProt Q96GD4)
Experiment: Fluorescence polarization titration of the fluorescent probe with STK12 kinase domain
Assay type: binding
Details: 25 nM probe, STK12 kinase domain serially diluted
Procedure: Step one: Characterization of the Fluorescent Probe
An absorbance spectrum is first evaluated for each probe. The excitation and emission spectra are then measured in order to identify the appropriate excitation and emission wavelengths for detecting the probe. An example of such a probe is 6-(2,7-difluoro-6-hydroxy-3-oxo-3H-xanthen-9-yl)-N-[6-(5-nitro-2-phenylamino-pyrimidin-4-ylamino)-hexyl]-isophthalamic acid where the excitation and emission maxima are 496 nm and 524 nm, respectively. These fluorescence spectra were measured on an SLM-8100 fluorimeter with the probe dissolved in an assay buffer (50 mM HEPES, pH 7.4, 100 mM NaCl, 5 mM MgCl2 5 % Glycerol, 200 mM TCEP and 0.01% (w/v) CHAPS, 2 % DMSO).
The affinity of the probe for STK12 kinase domain was then determined in a titration experiment. The polarization assay is carried out in Corning® Costar® NBS 96-well solid black flat bottom plates. In this example, an LJL Analyst® assay detection system was used with filters appropriate for the excitation/emission characteristics of the fluorescent probe. STK12 kinase domain was serially diluted into wells containing 25 nM probe to cover a broad concentration range across the plate. In addition, several wells contain either probe alone or probe with the highest concentration of STK12 kinase domain. This is done in order to calculate the Qb/Qf ratio for the probe/kinase domain pair. […]

Sequence of STK12 kinase domain (Q96GD4 77-327 limits assumed): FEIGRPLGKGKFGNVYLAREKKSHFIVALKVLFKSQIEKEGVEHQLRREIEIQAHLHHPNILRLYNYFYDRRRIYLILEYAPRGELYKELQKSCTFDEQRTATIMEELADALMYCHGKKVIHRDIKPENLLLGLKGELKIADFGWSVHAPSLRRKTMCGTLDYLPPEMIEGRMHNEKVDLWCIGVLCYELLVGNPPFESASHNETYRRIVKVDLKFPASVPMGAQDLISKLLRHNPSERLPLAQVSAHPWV

**Q.** With `O=C(NCCCCCCNc1nc(Nc2ccccc2)ncc1[N+](=O)[O-])c1ccc(-c2c3cc(F)c(=O)cc-3oc3cc(O)c(F)cc23)c(C(=O)O)c1` [Compound G, 6-(2,7-difluoro-6-hydroxy-3-oxo-3H-xanthen-9-yl)-N-[6-(5-nitro-2-phenylamino-pyrimidin-4-ylamino)-hexyl]-isophthalamic acid] as the compound, how does the “binding of fluorescent probe to STK12 kinase domain” value read?
**A.** binds to the active site of STK12 kinase domain
